In the NIST ThermoML archive (doi:10.1021/je060353z):
Where “and” joins values, the source holds several entries; their conditions need not be identical. Identical values can stand only once.

Key:
[1] = 101 kPa, Liquid
[2] = xn = mol fraction of the nth substance listed; conditions: 101 kPa, Liquid

Clc1ccccc1 [chlorobenzene]
[1]
Conditions	mass density	speed of sound [m/s]	viscosity [mPa·s]
298.15 K	1100.97 kg/m3 and 1100.67 kg/m3	1268	0.757
303.15 K	1095.1 kg/m3	1249.4	0.714
308.15 K	1089.08 kg/m3	1230.9	0.677
313.15 K	1083.66 kg/m3	1212.6	0.617

Clc1ccccc1 [chlorobenzene] + CCCCCCO
[2]
Conditions	mass density [kg/m3]	speed of sound [m/s]	viscosity [mPa·s]
298.15 K, x1 = 0.1144	842.629	1297.7	3.576
298.15 K, x1 = 0.2338	872.274	1289.8	2.746
298.15 K, x1 = 0.3573	904.193	1281.6	2.107
298.15 K, x1 = 0.4628	932.67	1274.8	1.699
298.15 K, x1 = 0.5568	959.077	1269.2	1.417
298.15 K, x1 = 0.6542	987.534	1264.3	1.184
298.15 K, x1 = 0.7457	1015.51	1260.9	1.008
298.15 K, x1 = 0.8353	1044.18	1259.3	0.873
298.15 K, x1 = 0.9171	1071.62	1260.9	0.788
298.15 K, x1 = 1	1100.97	1268	0.757
303.15 K, x1 = 0.1144	839.289	1280.6	3.096
303.15 K, x1 = 0.2338	868.705	1272.5	2.414
303.15 K, x1 = 0.3573	900.355	1264	1.87
303.15 K, x1 = 0.4628	928.591	1257.1	1.515
303.15 K, x1 = 0.5568	954.767	1251.6	1.274
303.15 K, x1 = 0.6542	982.986	1246.6	1.079
303.15 K, x1 = 0.7457	1010.71	1243.1	0.935
303.15 K, x1 = 0.8353	1039.12	1241.5	0.824
303.15 K, x1 = 0.9171	1066.27	1243.2	0.752
303.15 K, x1 = 1	1095.1	1249.4	0.714
308.15 K, x1 = 0.1144	835.421	1263.6	2.695
308.15 K, x1 = 0.2338	864.604	1255.4	2.123
308.15 K, x1 = 0.3573	895.988	1246.7	1.665
308.15 K, x1 = 0.4628	923.985	1239.7	1.369
308.15 K, x1 = 0.5568	949.942	1233.9	1.165
308.15 K, x1 = 0.6542	977.948	1228.9	0.997
308.15 K, x1 = 0.7457	1005.42	1225.4	0.87
308.15 K, x1 = 0.8353	1033.55	1224.3	0.772
308.15 K, x1 = 0.9171	1060.41	1225.8	0.711
308.15 K, x1 = 1	1089.08	1230.9	0.677
313.15 K, x1 = 0.1144	831.574	1246.5	2.35
313.15 K, x1 = 0.2338	860.561	1238.5	1.865
313.15 K, x1 = 0.3573	891.747	1229.8	1.478
313.15 K, x1 = 0.4628	919.571	1222.9	1.223
313.15 K, x1 = 0.5568	945.388	1216.7	1.044
313.15 K, x1 = 0.6542	973.227	1211.6	0.896
313.15 K, x1 = 0.7457	1000.53	1207.9	0.78
313.15 K, x1 = 0.8353	1028.46	1206.6	0.692
313.15 K, x1 = 0.9171	1055.09	1208.2	0.637
313.15 K, x1 = 1	1083.66	1212.6	0.617

CCCCCCCCCCO [decan-1-ol]
[1]
Conditions	mass density [kg/m3]	speed of sound [m/s]	viscosity [mPa·s]
298.15 K	826.762	1380	11.83
303.15 K	822.853	1365	9.754
308.15 K	819.427	1346.1	8.135
313.15 K	815.983	1329.3	6.842

CCCCCCCCCCO [decan-1-ol] + Clc1ccccc1
[2], x2 = 0
Conditions	mass density [kg/m3]	speed of sound [m/s]	viscosity [mPa·s]
298.15 K	826.762	1380	11.83
303.15 K	822.853	1365	9.754
308.15 K	819.427	1346.1	8.135
313.15 K	815.983	1329.3	6.842

CCCCCCCO [heptan-1-ol]
[1]
Conditions	mass density [kg/m3]	speed of sound [m/s]	viscosity [mPa·s]
298.15 K	818.732	1327.3	5.944
303.15 K	815.287	1313.6	5.069
308.15 K	811.737	1293.9	4.333
313.15 K	808.162	1277.2	3.726

CCCCCCCO [heptan-1-ol] + Clc1ccccc1
[2], x2 = 0
Conditions	mass density [kg/m3]	speed of sound [m/s]	viscosity [mPa·s]
298.15 K	818.732	1327.3	5.944
303.15 K	815.287	1313.6	5.069
308.15 K	811.737	1293.9	4.333
313.15 K	808.162	1277.2	3.726

CCCCCCO [hexan-1-ol]
[1]
Conditions	mass density [kg/m3]	speed of sound [m/s]	viscosity [mPa·s]
298.15 K	815.23	1304.7	4.594
303.15 K	812.118	1287.9	3.887
308.15 K	808.482	1271.1	3.359
313.15 K	804.811	1254.5	2.914

CCCCCCO [hexan-1-ol] + Clc1ccccc1
[2], x2 = 0
Conditions	mass density [kg/m3]	speed of sound [m/s]	viscosity [mPa·s]
298.15 K	815.23	1304.7	4.594
303.15 K	812.118	1287.9	3.887
308.15 K	808.482	1271.1	3.359
313.15 K	804.811	1254.5	2.914

CCCCCCCCCO [nonan-1-ol]
[1]
Conditions	mass density [kg/m3]	speed of sound [m/s]	viscosity [mPa·s]
298.15 K	824.478	1365.5	9.715
303.15 K	821.044	1353.6	7.927
308.15 K	817.582	1331.8	6.664
313.15 K	814.098	1315	5.645

CCCCCCCCCO [nonan-1-ol] + Clc1ccccc1
[2]
Conditions	mass density [kg/m3]	speed of sound [m/s]	viscosity [mPa·s]
298.15 K, x2 = 0	824.478	1365.5	9.715
298.15 K, x2 = 0.1529	850.648	1350.5	6.576
298.15 K, x2 = 0.3008	879.504	1333.3	4.488
298.15 K, x2 = 0.4379	910.112	1316.2	3.135
298.15 K, x2 = 0.5505	938.617	1302.2	2.329
298.15 K, x2 = 0.6413	964.273	1291.1	1.828
298.15 K, x2 = 0.7273	991.186	1281.2	1.455
298.15 K, x2 = 0.8031	1017.42	1274	1.192
298.15 K, x2 = 0.8744	1044.71	1269	0.999
298.15 K, x2 = 0.937	1071.14	1267.1	0.864
303.15 K, x2 = 0	821.044	1353.6	7.927
303.15 K, x2 = 0.1529	846.995	1332.6	5.56
303.15 K, x2 = 0.3008	875.625	1315.8	3.876
303.15 K, x2 = 0.4379	906.014	1299.5	2.752
303.15 K, x2 = 0.5505	934.309	1286	2.07
303.15 K, x2 = 0.6413	959.757	1275.1	1.646
303.15 K, x2 = 0.7273	986.433	1265.4	1.325
303.15 K, x2 = 0.8031	1012.44	1257.7	1.097
303.15 K, x2 = 0.8744	1039.48	1252	0.924
303.15 K, x2 = 0.937	1065.72	1249.1	0.802
308.15 K, x2 = 0	817.582	1331.8	6.664
308.15 K, x2 = 0.1529	843.265	1315.5	4.745
308.15 K, x2 = 0.3008	871.65	1298.5	3.365
308.15 K, x2 = 0.4379	901.759	1281.7	2.433
308.15 K, x2 = 0.5505	929.764	1267.7	1.858
308.15 K, x2 = 0.6413	954.969	1256.3	1.493
308.15 K, x2 = 0.7273	981.393	1246.3	1.205
308.15 K, x2 = 0.8031	1007.14	1238.5	1.014
308.15 K, x2 = 0.8744	1033.95	1233	0.869
308.15 K, x2 = 0.937	1059.96	1231.5	0.764
313.15 K, x2 = 0	814.098	1315	5.645
313.15 K, x2 = 0.1529	839.584	1299.4	4.074
313.15 K, x2 = 0.3008	867.761	1282	2.935
313.15 K, x2 = 0.4379	897.663	1264.9	2.152
313.15 K, x2 = 0.5505	925.493	1251	1.658
313.15 K, x2 = 0.6413	950.508	1239.8	1.346
313.15 K, x2 = 0.7273	976.738	1229.8	1.094
313.15 K, x2 = 0.8031	1002.28	1221.8	0.919
313.15 K, x2 = 0.8744	1028.88	1215.6	0.775
313.15 K, x2 = 0.937	1054.7	1213.3	0.676

CCCCCCCCO [octan-1-ol] + Clc1ccccc1
[2], x2 = 0
Conditions	mass density [kg/m3]	speed of sound [m/s]	viscosity [mPa·s]
298.15 K	821.826	1347.8	7.661
303.15 K	818.23	1338	6.402
308.15 K	814.737	1314.3	5.425
313.15 K	810.098	1297.6	4.628
